Measurements as given in ChEMBL document CHEMBL3272215, “Gliotoxin analogues as inhibitors of reverse transcriptase. 2. Resolution and X-ray crystal structure determination” (J Med Chem, 1978).
Activity calls are given as the source filed them. The calls are words filed in the database; no cut-off is given here.

Test system: Moloney murine leukemia virus
Assay: Inhibition of Moloney murine leukemia virus reverse transcriptase assessed as [3H]-dTMP incorporation after 30 to 120 mins

Row | Structure (SMILES) | logI50 | inhibition
1 | CN1C(=O)[C@]23SSC[C@@H]4OC(C)(C)O[C@H]4CSS[C@@]1(C)C(=O)N2c1ccccc1C3(C)C | 0.796 | 
2 | CN1C(=O)[C@@]23SSC[C@@H]4OC(C)(C)O[C@H]4CSS[C@]1(C)C(=O)N2c1ccccc1C3(C)C | 0.796 | 
3 | CN1C(=O)[C@]23SS[C@@]1(C)C(=O)N2c1ccccc1C3(C)C |  | Active
4 | CN1C(=O)[C@@]23SS[C@]1(C)C(=O)N2c1ccccc1C3(C)C |  | Active
